# ChEMBL document CHEMBL2163335, “Structure-functional selectivity relationship studies of β-arrestin-biased dopamine D₂ receptor agonists” (J Med Chem, 2012)
# Activity calls are given as the source filed them. No cut-off for these calls is given here.
# How the values were obtained:
# [1] = target: T1, D(2) dopamine receptor (Homo sapiens, UniProt P14416); experiment: Displacement of [3H]N-methylspiperone from human D2L receptor expressed in CHO cells after 1.5 hrs by microbeta counting method; type: cell-based
# T1 sequence (P14416 whole entry): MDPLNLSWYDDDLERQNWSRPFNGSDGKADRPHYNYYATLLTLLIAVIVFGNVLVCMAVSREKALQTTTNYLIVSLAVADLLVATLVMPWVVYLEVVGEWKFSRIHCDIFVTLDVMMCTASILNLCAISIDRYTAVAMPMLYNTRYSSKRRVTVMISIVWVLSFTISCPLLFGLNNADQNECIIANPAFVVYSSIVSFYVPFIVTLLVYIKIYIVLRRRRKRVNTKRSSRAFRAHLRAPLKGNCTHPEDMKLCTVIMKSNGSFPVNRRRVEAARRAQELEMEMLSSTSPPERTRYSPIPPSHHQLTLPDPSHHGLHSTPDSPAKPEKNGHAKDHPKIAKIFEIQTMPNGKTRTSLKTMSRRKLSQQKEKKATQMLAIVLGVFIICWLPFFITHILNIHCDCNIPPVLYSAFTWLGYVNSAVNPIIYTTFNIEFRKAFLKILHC
# [2] = target: T1, D(2) dopamine receptor; experiment: Agonist activity at D2L receptor in human HTLA cells assessed as beta arrestin recruitment at 6 uM after 18 hrs by luminescence assay; type: functional, cell-based
# [3] = target: T1, D(2) dopamine receptor; conditions: HTLA, at 6 µM
# Description: Agonist activity at D2L receptor in human HTLA cells assessed as beta arrestin recruitment at 6 uM after 18 hrs by luminescence assay relative to Quinpirole
# [4] = target: T1, D(2) dopamine receptor; experiment: Agonist activity at human D2L receptor expressed in HEK293T cells coexpressing Gi subunit assessed as inhibition of isoproterenol-stimulated cAMP production by luminescence assay; type: functional, cell-based, HEK-293T
# [5] = target: T1, D(2) dopamine receptor; experiment: Partial agonist activity at D2L receptor in human HTLA cells assessed as beta arrestin recruitment at 6 uM after 18 hrs by luminescence assay; type: functional, cell-based
# [6] = test system: Mus musculus; experiment: Antipsychotic-like activity in beta- arrestin-2 knockout mouse assessed as inhibition of PCP-induced hyperlocomotion at 2 mg/kg, ip administered 30 min prior to PCP challenge measured after 90 min; type: functional, organism-based; set-up: dose 2 mg/kg
# [7] = target: D(1A) dopamine receptor (Homo sapiens) (UniProt P21728); experiment: Binding affinity to D1 receptor
# Sequence of D(1A) dopamine receptor (Homo sapiens) (P21728 whole entry): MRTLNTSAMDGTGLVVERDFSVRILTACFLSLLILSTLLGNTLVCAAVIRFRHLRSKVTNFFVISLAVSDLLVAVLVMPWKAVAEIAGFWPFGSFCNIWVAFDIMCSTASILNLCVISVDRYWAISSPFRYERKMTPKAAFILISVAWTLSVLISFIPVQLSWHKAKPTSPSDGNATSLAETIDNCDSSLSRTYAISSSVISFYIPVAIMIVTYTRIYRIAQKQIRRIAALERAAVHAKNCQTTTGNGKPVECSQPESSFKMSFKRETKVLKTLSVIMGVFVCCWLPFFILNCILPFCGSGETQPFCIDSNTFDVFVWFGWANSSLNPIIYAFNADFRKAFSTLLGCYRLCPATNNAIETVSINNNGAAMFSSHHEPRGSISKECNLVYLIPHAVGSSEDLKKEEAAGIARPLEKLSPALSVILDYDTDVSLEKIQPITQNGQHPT
# [8] = test system: Mus musculus; experiment: Antipsychotic-like activity in wild type mouse assessed as inhibition of PCP-induced hyperlocomotion at 2 mg/kg, ip administered 30 min prior to PCP challenge measured after 90 min; type: functional, organism-based; set-up: dose 2 mg/kg
# [9] = target: D(1B) dopamine receptor (Homo sapiens) (UniProt P21918); experiment: Binding affinity to D5 receptor
# Sequence of D(1B) dopamine receptor (Homo sapiens) (P21918 whole entry): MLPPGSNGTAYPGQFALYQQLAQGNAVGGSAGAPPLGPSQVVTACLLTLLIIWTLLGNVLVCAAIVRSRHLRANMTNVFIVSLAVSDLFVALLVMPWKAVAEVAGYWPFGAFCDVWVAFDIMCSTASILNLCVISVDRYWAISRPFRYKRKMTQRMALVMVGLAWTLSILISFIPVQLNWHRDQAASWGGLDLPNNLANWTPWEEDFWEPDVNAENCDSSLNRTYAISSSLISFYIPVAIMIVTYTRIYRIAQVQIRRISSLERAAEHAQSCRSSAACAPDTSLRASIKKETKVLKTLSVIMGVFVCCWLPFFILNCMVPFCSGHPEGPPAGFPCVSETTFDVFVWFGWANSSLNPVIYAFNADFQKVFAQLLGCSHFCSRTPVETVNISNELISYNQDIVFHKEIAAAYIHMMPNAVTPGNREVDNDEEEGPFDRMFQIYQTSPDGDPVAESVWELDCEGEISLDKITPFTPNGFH
# [10] = target: T1, D(2) dopamine receptor; conditions: HTLA, 6 uM
# Description: Partial agonist activity at D2L receptor in human HTLA cells assessed as beta arrestin recruitment at 6 uM after 18 hrs by luminescence assay relative to Quinpirole
# [11] = target: T2, D(4) dopamine receptor (Homo sapiens) (UniProt P21917); experiment: Binding affinity to D4 receptor
# T2 sequence (whole entry): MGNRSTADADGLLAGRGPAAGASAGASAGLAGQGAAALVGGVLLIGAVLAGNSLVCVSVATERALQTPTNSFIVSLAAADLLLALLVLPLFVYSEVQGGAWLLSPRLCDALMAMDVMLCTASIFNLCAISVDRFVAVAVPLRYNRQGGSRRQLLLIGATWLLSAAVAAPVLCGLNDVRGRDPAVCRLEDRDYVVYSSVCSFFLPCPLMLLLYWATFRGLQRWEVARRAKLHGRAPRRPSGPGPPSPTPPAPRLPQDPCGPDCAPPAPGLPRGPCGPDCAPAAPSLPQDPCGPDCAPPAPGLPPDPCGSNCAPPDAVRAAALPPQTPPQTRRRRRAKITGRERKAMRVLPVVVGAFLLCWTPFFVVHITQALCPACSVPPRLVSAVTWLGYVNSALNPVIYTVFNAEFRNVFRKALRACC
# [12] = target: D(3) dopamine receptor (Homo sapiens) (UniProt P35462); experiment: Binding affinity to D3 receptor
# Sequence of D(3) dopamine receptor (Homo sapiens) (P35462 whole entry): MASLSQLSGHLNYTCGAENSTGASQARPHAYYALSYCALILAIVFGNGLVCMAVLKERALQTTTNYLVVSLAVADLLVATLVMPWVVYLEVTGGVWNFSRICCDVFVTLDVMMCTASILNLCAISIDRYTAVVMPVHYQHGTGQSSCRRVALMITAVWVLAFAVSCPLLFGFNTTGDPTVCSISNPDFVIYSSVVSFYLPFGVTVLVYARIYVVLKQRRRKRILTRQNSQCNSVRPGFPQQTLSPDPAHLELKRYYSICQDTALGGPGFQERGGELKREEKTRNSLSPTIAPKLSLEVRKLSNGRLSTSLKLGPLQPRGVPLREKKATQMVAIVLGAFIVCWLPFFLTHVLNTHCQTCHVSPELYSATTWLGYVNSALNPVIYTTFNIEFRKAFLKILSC
structure (smiles),measurement,setting,value
CCOc1cccc(N2CCN(CCCCOc3ccc4c(c3)NC(=O)CC4)CC2)c1,Ki,[1],21 nM
same,EC50,[2],10 nM
same,Emax,[3],40%
same,EC50,[4]; read-out: EC50,158 nM
CC(C)Oc1ccccc1N1CCN(CCCCOc2ccc3c(c2)NC(=O)CC3)CC1,Ki,[1],3.1 nM
same,EC50,[2],2 nM
same,Emax,[3],63%
same,EC50,[4]; read-out: EC50,25 nM
O=C1NCCc2ccc(OCCCCN3CCN(c4cccc(Cl)c4Cl)CC3)cc21,EC50,[5],4 nM
same,EC50,[4]; hek-293t,Not Active
O=c1[nH]c2ccc(OCCCCN3CCN(c4cccc(Cl)c4Cl)CC3)cc2[nH]1,EC50,[4]; hek-293t,Not Active
O=C1CCc2ccc(OCCCCN3CCCN(c4cccc(Cl)c4Cl)CC3)cc2N1,inhibition,[6],inactive
same,Activity,[7],inactive
same,inhibition,[8],Active
same,Activity,[9],inactive
O=C1CCc2ccc(Oc3cccc(CN4CCN(c5cccc(Cl)c5Cl)CC4)c3)cc2N1,EC50,[5],316 nM
same,EC50,[4]; hek-293t,Not Active
O=C1CCc2ccc(OC[C@H]3CC[C@H](CN4CCN(c5cccc(Cl)c5Cl)CC4)CC3)cc2N1,EC50,[5],1580 nM
same,Ki,[1],145 nM
same,Emax,[10],45%
same,EC50,[4]; hek-293t,Not Active
Clc1cccc(N2CCN(CCCCOc3ccc4cn[nH]c4c3)CC2)c1Cl,EC50,[5],100 nM
same,EC50,[4]; hek-293t,Not Active
Clc1cccc(N2CCN(CCCCOc3ccc4scnc4c3)CC2)c1Cl,EC50,[5],63 nM
same,EC50,[4]; hek-293t,Not Active
O=C1NCCc2ccc(OCCCN3CCCN(c4cccc(Cl)c4Cl)CC3)cc21,EC50,[2],6.3 nM
same,EC50,[4]; hek-293t,Not Active
Clc1cccc(N2CCCN(CCCOc3ccc4scnc4c3)CC2)c1Cl,Emax,[3],71%
O=C1CCc2ccc(OCCCCN3CCCN(c4cccc(Cl)c4Cl)CC3)nc2N1,EC50,[2],1.6 nM
same,EC50,[4]; hek-293t,Not Active
Clc1cccc(N2CCCN(CCCCOc3ccc4scnc4c3)CC2)c1Cl,EC50,[4]; hek-293t,Not Active
Clc1cccc(N2CCN(CCCOc3ccc4cn[nH]c4c3)CC2)c1Cl,EC50,[2],200 nM
same,EC50,[4]; hek-293t,Not Active
Clc1cccc(N2CCN(CCCOc3ccc4scnc4c3)CC2)c1Cl,EC50,[2],126 nM
same,EC50,[4]; hek-293t,Not Active
O=C1NCCc2ccc(OCCCN3CCN(c4cccc(Cl)c4Cl)CC3)cc21,EC50,[2],20 nM
same,EC50,[4]; hek-293t,Not Active
O=c1[nH]c2ccc(OCCCCN3CCC(c4cccc(Cl)c4Cl)CC3)cc2[nH]1,EC50,[4]; hek-293t,Not Active
Clc1cccc(C2CCN(CCCCOc3ccc4scnc4c3)CC2)c1Cl,inhibition,[6],inactive
same,Activity,[7],inactive
same,Activity,[11],Active
same,EC50,[2],79 nM
same,Activity,[12],Active
same,Emax,[3],78%
same,inhibition,[8],Active
same,EC50,[4]; hek-293t,Not Active
same,Activity,[9],inactive
CCOc1ccc(N2CCN(CCCCOc3ccc4c(c3)NC(=O)CC4)CC2)cc1,Ki,[1],53 nM
same,EC50,[2],50 nM
same,Emax,[3],82%
same,EC50,[4]; read-out: EC50,251 nM
O=C1CCc2ccc(Oc3ccc(CN4CCN(c5cccc(Cl)c5Cl)CC4)cc3)cc2N1,EC50,[5],501 nM
same,EC50,[4]; hek-293t,Not Active
O=C1CCc2ccc(OCCCCN3CCN(c4cccc(Cl)c4Cl)CC3)nc2N1,EC50,[4]; hek-293t,Not Active
Clc1cccc(C2CCN(CCCOc3ccc4scnc4c3)CC2)c1Cl,EC50,[2],50 nM
same,EC50,[4]; hek-293t,Not Active
